Data taken from ChEMBL document CHEMBL5625249, “Optimization and antifungal activity of quinoline derivatives linked to chalcone moiety combined with FLC against Candida albicans” (Eur J Med Chem, 2023).
Activity calls are given as the source filed them. No cut-off for these calls is given here.

Key:
Candida albicans [1] = assay: Antifungal activity against Clinical FLC-resistant Candida albicans 23 measured after 24 hrs by microdilution method; format: functional
Candida albicans [2] = assay: Synergistic antifungal activity against Clinical FLC-resistant Candida albicans 23 measured after 24 hrs in presence of fluconazole by microdilution method; format: functional
Candida albicans [3] = assay: Synergistic antifungal activity against FLC-sensitive Candida albicans SC5314 assessed as fractional inhibitory concentration index measured after 24 hrs in presence of fluconazole by microdilution method; format: functional
Candida albicans [4] = assay: Antifungal activity against clinical FLC-resistant Candida albicans 808 measured after 24 hrs by microdilution method; format: functional
Candida albicans [5] = assay: Antifungal activity against clinical FLC-resistant Candida albicans 602 measured after 24 hrs by microdilution method; format: functional
Candida albicans [6] = assay: Antifungal activity against clinical FLC-resistant Candida albicans 799 measured after 24 hrs by microdilution method; format: functional
Candida albicans [7] = assay: Antifungal activity against clinical FLC-resistant Candida albicans 3816 measured after 24 hrs by microdilution method; format: functional
Candida albicans [8] = assay: Antifungal activity against clinical FLC-resistant Candida albicans 4574 measured after 24 hrs by microdilution method; format: functional
Candida albicans [9] = assay: Antifungal activity against FLC-resistant Candida albicans ATCC 10231 measured after 24 hrs by microdilution method; format: functional
Candida albicans [10] = assay: Synergistic antifungal activity against clinical FLC-resistant Candida albicans 187 measured after 24 hrs in presence of fluconazole by microdilution method; format: functional
Candida albicans [11] = assay: Synergistic antifungal activity against clinical FLC-resistant Candida albicans 381 measured after 24 hrs by microdilution method; format: functional
Candida albicans [12] = assay: Synergistic antifungal activity against clinical FLC-resistant Candida albicans 3816 measured after 24 hrs by microdilution method; format: functional
Candida albicans [13] = assay: Synergistic antifungal activity against clinical FLC-resistant Candida albicans 4574 measured after 24 hrs by microdilution method; format: functional
Candida albicans [14] = assay: Synergistic antifungal activity against FLC-resistant Candida albicans ATCC 10231 measured after 24 hrs by microdilution method; format: functional
Candida albicans [15] = assay: Synergistic antifungal activity against FLC-resistant Candida albicans ATCC 14053 measured after 24 hrs by microdilution method; format: functional
Candida albicans [16] = assay: Synergistic antifungal activity against clinical FLC-resistant Candida albicans 187 assessed as fractional inhibitory concentration index measured after 24 hrs in presence of fluconazole by microdilution method; format: functional
Candida albicans [17] = assay: Synergistic antifungal activity against clinical FLC-resistant Candida albicans 381 assessed as fractional inhibitory concentration index measured after 24 hrs by microdilution method; format: functional
Candida albicans [18] = assay: Synergistic antifungal activity against clinical FLC-resistant Candida albicans 602 assessed as fractional inhibitory concentration index measured after 24 hrs by microdilution method; format: functional
Candida albicans [19] = assay: Synergistic antifungal activity against clinical FLC-resistant Candida albicans 550 assessed as fractional inhibitory concentration index measured after 24 hrs by microdilution method; format: functional
Candida albicans [20] = assay: Synergistic antifungal activity against clinical FLC-resistant Candida albicans 4508 assessed as fractional inhibitory concentration index measured after 24 hrs by microdilution method; format: functional
Candida albicans [21] = assay: Synergistic antifungal activity against FLC-resistant Candida albicans ATCC 10231 assessed as fractional inhibitory concentration index measured after 24 hrs by microdilution method; format: functional
Candida albicans [22] = assay: Antifungal activity against FLC-resistant Candida albicans ATCC 14053 cultured in spider medium assessed as inhibition of hyphal formation at 1 ug/ml measured after 2 hrs by inverted microscopy; format: functional, organism-based; conditions: dose 1.0 µg/ml
Candida albicans [23] = assay: Synergistic antifungal activity against FLC-resistant Candida albicans ATCC 14053 cultured in spider medium assessed as inhibition of hyphal formation at 1 ug/ml measured after 4 to 8 hrs in presence of fluconazole by inverted microscopy; format: functional, organism-based; conditions: dose 1.0 µg/ml, time 4-8 hrs
Candida albicans [24] = assay: Synergistic antifungal activity against FLC-resistant Candida albicans ATCC 14053 assessed as inhibition of hyphal formation by measuring down regulation of RAS1 gene expression at 1 ug/ml measured after 16 to 18 hrs in presence of fluconazole by qRT-PCR analysis; format: functional, organism-based; conditions: dose 1.0 µg/ml, time 16-18 hrs
Candida albicans [25] = assay: Synergistic antifungal activity against FLC-resistant Candida albicans ATCC 14053 assessed as inhibition of hyphal formation by measuring down regulation of EFG1 gene expression at 1 ug/ml measured after 16 to 18 hrs in presence of fluconazole by qRT-PCR analysis; format: functional, organism-based; conditions: dose 1.0 µg/ml, time 16-18 hrs
Candida albicans [26] = assay: Synergistic antifungal activity against FLC-resistant Candida albicans ATCC 14053 cultured in SD +10% FBS liquid medium assessed as inhibition of hyphal formation at 1 ug/ml measured after 2 hrs in presence of fluconazole by inverted microscopy; format: functional, organism-based; conditions: dose 1.0 µg/ml
Candida albicans [27] = assay: Synergistic antifungal activity against FLC-resistant Candida albicans ATCC 14053 cultured in SD +10% FBS liquid medium assessed as inhibition of hyphal formation at 1 ug/ml measured after 4 to 8 hrs in presence of fluconazole and dibutyryl-cAMP by inverted microscopy; format: functional, organism-based; conditions: dose 1.0 µg/ml, time 4-8 hrs
Candida albicans [28] = assay: Induction of reactive oxygen species production in FLC-resistant Candida albicans ATCC 14053 at 1 ug/mL measured after 16 to 18 hrs in presence of fluconazole by DCFH-DA staining based fluorescence assay; format: functional, organism-based; conditions: dose 1.0 µg/ml, time 16-18 hrs
Candida albicans [29] = assay: Synergistic antifungal activity against FLC-resistant Candida albicans ATCC 14053 assessed as reduction in intracellular ATP level at 1 ug/ml measured after 16 to 18 hrs in presence of fluconazole by luminescence assay; format: functional, organism-based; conditions: dose 1.0 µg/ml, time 16-18 hrs
[30] = Toxicity in Balb/c mouse assessed as death at 7.5 to 15 mg/kg, ig measured daily for 6 days in presence of fluconazole; format: organism-based; conditions: in vivo, po, 144 h, dose 7.5-15 mg/kg, time 6 day
Candida albicans [31] = assay: In vivo antifungal activity against FLC-resistant Candida albicans ATCC 14053 infected in Balb/c mouse assessed as survival rate at 7.5 to 15 mg/kg, ig measured daily for 6 days in presence of fluconazole (Rvb < 20%); format: functional; conditions: dose 7.5-15 mg/kg, time 6 day
Candida albicans [32] = assay: In vivo antifungal activity against FLC-resistant Candida albicans ATCC 14053 infected in Balb/c mouse assessed as reduction in kidney fungal load at 7.5 to 15 mg/kg, ig measured after 6 days in presence of fluconazole; format: functional, organism-based; conditions: dose 7.5-15 mg/kg, time 6.0 day
Candida albicans [33] = assay: In vivo antifungal activity against FLC-resistant Candida albicans ATCC 14053 infected in Balb/c mouse assessed as restoration of normal glomeruli morphology at 15 mg/kg, ig measured after 6 days by H and E staining based histopathological analysis; format: functional, organism-based; conditions: time 6.0 day
Candida albicans [34] = assay: In vivo antifungal activity against FLC-resistant Candida albicans ATCC 14053 infected in Balb/c mouse assessed as reduction in severity of lesions in lungs at 15 mg/kg, ig measured after 6 days by H and E staining based histopathological analysis; format: functional, organism-based; conditions: time 6.0 day
Candida albicans [35] = assay: In vivo antifungal activity against FLC-resistant Candida albicans ATCC 14053 infected in Balb/c mouse assessed as reduction in renal injury at 15 mg/kg, ig measured after 6 days by H and E staining based histopathological analysis; format: functional, organism-based; conditions: time 6.0 day
Candida albicans [36] = assay: In vivo antifungal activity against FLC-resistant Candida albicans ATCC 14053 infected in Balb/c mouse assessed as removal of colonized fungi at 15 mg/kg, ig measured after 6 days by H and E staining based histopathological analysis; format: functional, organism-based; conditions: time 6.0 day

In the case of `CN1CCN(c2nc3ccccc3cc2/C=C/C(=O)c2ccc(N3CCN(Cc4ccc(C(F)(F)F)cc4)CC3)cc2)CC1`, the MIC80 (Candida albicans [1]) is reported as over 40 µg/mL, the MIC80 (Candida albicans [2]) is reported as 1.2 µg/mL and the “fractional inhibitory concentration index (FICI)” value (Candida albicans [3]) is reported as 0.21. The MIC80 (Candida albicans [4]) was over 40 µg/mL, the MIC80 (Candida albicans [5]) was over 40 µg/mL and the MIC80 (Candida albicans [6]) was over 40 µg/mL. It also gave an MIC80 (Candida albicans [7]) of over 40 µg/mL, an MIC80 (Candida albicans [8]) of over 40 µg/mL and an MIC80 (Candida albicans [9]) of over 40 µg/mL. For the same compound, the MIC80 (Candida albicans [10]) was 0.54 µg/mL, the MIC80 (Candida albicans [11]) was 1.35 µg/mL and the MIC80 (Candida albicans [12]) was 1.2 µg/mL. The MIC80 (Candida albicans [13]) was 0.91 µg/mL, the MIC80 (Candida albicans [14]) was 5.58 µg/mL and the MIC80 (Candida albicans [15]) was 0.87 µg/mL. The “fractional inhibitory concentration index (FICI)” value (Candida albicans [16]) was 0.01, the “fractional inhibitory concentration index (FICI)” value (Candida albicans [17]) was 0.03 and the “fractional inhibitory concentration index (FICI)” value (Candida albicans [18]) was 0.14. The “fractional inhibitory concentration index (FICI)” value (Candida albicans [19]) was 0.15, the “fractional inhibitory concentration index (FICI)” value (Candida albicans [20]) was 0.03 and the “fractional inhibitory concentration index (FICI)” value (Candida albicans [21]) was 0.14. For the same compound, the inhibition (Candida albicans [22]) was “inactive”, the inhibition (Candida albicans [23]) was “Active” and the inhibition (Candida albicans [24]) was “Active”. The inhibition (Candida albicans [25]) was “Active”, the inhibition (Candida albicans [26]) was “inactive” and the inhibition (Candida albicans [27]) was “inactive”. For the same compound, the Activity (Candida albicans [28]) was “Active”, the Activity (Candida albicans [29]) was “Active” and the Activity [30] was “Non-Toxic”. The Survival (Candida albicans [31]) was 90%, the Activity (Candida albicans [32]) was “Active” and the Activity (Candida albicans [33]) was “inactive”. The Activity (Candida albicans [34]) was “inactive”, the Activity (Candida albicans [35]) was “inactive” and the Activity (Candida albicans [36]) was “inactive”.
